According to patent EP0252983B1, “SALTS OF N-(VINYLOXIETHYL)DITHIOCARBAMIC ACID, METHOD OF OBTAINING THEREOF AND […] ON THEM” (priority 1985, dated 1987):

Key:
[1] = Acute toxicity (LD50) in mice; assay type: in vivo, weißen Mäusen; settings: mouse, in vivo, po; perorale Applikation an weißen Mäusen; read-out: LD50
[2] = tested on: Penicillium charlesii; assay: Mycelial growth inhibition on agar (contact activity); assay type: cell-based; settings: Penicillium charlesii, 120 h, Würzeagar, read-out: Myzelhemmung in %
[3] = tested on: Cladosporium resinae; assay: as above; assay type: cell-based; settings: Amorphotheca resinae, 120 h, Würzeagar, read-out: Myzelhemmung in %
[4] = tested on: Oidium Sp.; assay: as above; assay type: cell-based; settings: Würzeagar
[5] = tested on: Acremonium cowum; assay: as above; assay type: cell-based; settings: 120 h, Würzeagar, read-out: Myzelhemmung in %
[6] = tested on: Acremonium charticola; assay: as above; assay type: cell-based; settings: Acremonium charticola, 120 h, Würzeagar, read-out: Myzelhemmung in %
[7] = tested on: Geotrichum candidum Link; assay: as above; assay type: cell-based; settings: Würzeagar
[8] = tested on: Walrotiela subiculesa; assay: as above; assay type: cell-based; settings: 120 h, Würzeagar, read-out: Myzelhemmung in %
[9] = tested on: Cladosporium cladosporioides; assay: as above; assay type: cell-based; settings: Cladosporium cladosporioides, 120 h, Würzeagar, read-out: Myzelhemmung in %
[10] = tested on: Penicillium chrysogenum; assay: as above; assay type: cell-based; settings: Würzeagar
[11] = tested on: Verticillium dahliae; assay: Soil fungicide test (fungal discs in treated soil); assay type: cell-based; design: key: Das Vorhandensein (+); das Fehlen (-) des wachsenden Myzels um die Scheibe herum; settings: 160 mg/kg Boden
Procedure: (§1) Eine 50 g schwere Bodenprobe bringt man in ein Glasgefäß ein, sterilisiert innerhalb von 2 Stunden unter einem Druck von 2 atm, gibt dann dem Boden das Präparat als wäßrige Lösung ausgehend von 160 mg/kg zu, wonach in den Boden Scheiben mit Kulturen folgender Pilze Fusarium oxysporum, Verticillium dahliae, Rhizoctonia solani, Pythium ultimum untergebracht werden.
(§2) Nach 24 und 48 Stunden werden die Scheiben in fließendem Wasser, dann in sterilem Wasser gewaschen, auf sterilem Filterpapier getrocknet und auf eine reine Agarplatte gelegt. Das Vorhandensein (+) oder das Fehlen (-) des wachsenden Myzels um die Scheibe herum wies auf die Wirksamkeit des Präparats. Als Vergleichsmuster diente dabei Karbathion. Die Prüfergebnisse sind in der Tabelle 5 dargestellt.

[12] = tested on: Rhizoctonia solani; assay: Soil fungicide test (fungal discs in treated soil); assay type: cell-based; design: key: Das Vorhandensein (+); das Fehlen (-) des wachsenden Myzels um die Scheibe herum; settings: 160 mg/kg Boden
Procedure: as §1, §2

[13] = tested on: Fusarium oxysporum; assay: Soil fungicide test (fungal discs in treated soil); assay type: cell-based; design: key: Das Vorhandensein (+); das Fehlen (-) des wachsenden Myzels um die Scheibe herum; settings: 160 mg/kg Boden
Procedure: as §1, §2

[14] = tested on: Pythium ultimum; assay: Soil fungicide test (fungal discs in treated soil); assay type: cell-based; design: key: Das Vorhandensein (+); das Fehlen (-) des wachsenden Myzels um die Scheibe herum; settings: 160 mg/kg Boden
Procedure: as §1, §2

[15] = tested on: Psoroptes cuniculi; assay: Acaricidal activity on isolated mites; assay type: in vivo
Procedure: Die akarizide Aktivität der Stoffe wird an isolierten Milben Psoroptes cuniculi als Erreger der Psoroptesräude bei Kaninchen geprüft. Von frischen Verkrustungen von Kaninchen mit Psoroptesräude, werden zu diesem Zweck 50 Milbenexemplare (Larven, Nymphen, Imago) gewählt und in Petri-Schalen auf ein Filterpapierblatt übertragen. Dann bringt man auf Milben und die ganze Blattoberfläche 1,5 ml zu prüfende wäßrige Stofflösung in destilliertem Wasser auf. Die Schale wird mit Deckel verschlossen und in einen Thermostat bei 30 °C und Feuchtegehalt von 90 % angeordnet. Der Wirkstoff wird als wäßrige Lösung mit einer zwischen 0,0039 und 4 % liegenden Konzentration genommen. Als Vergleichsmuster dient gleichzeitig eine wäßrige Lösung von Chlorophos. Milben werden im Kontrollversuch (Kontrolle auf Lebensfähigkeit)mit 1,5 ml physiologischer Lösung behandelt und in einen anderen Thermostat unter gleichen Temperatur- und Feuchtigkeitsbedingungen aufgestellt.
Nach 1, 2, 4, 6 Stunden und alle 24 Stunden betrachtet man die Milben im Mikroskop und zählt die toten Milben. Aufgrund der Milbenvernichtung durch einen 24-stündigen Kontakt mit dem Wirkstoff ermittelt man die LK-50 Werte. Die Versuche werden 5mal wiederholt. Arithmetische Mittelwerte gibt Tabelle 14 an.

[16] = tested on: Cladosporium cladosporioides; assay: Mycelial growth inhibition on agar (contact activity); assay type: cell-based; settings: Cladosporium cladosporioides, 120 h; Präparatkonzentration 0,006 %; Würzeagar; read-out: Myzelhemmung in %

SMILES: C=COCCNC(=S)S [Kalium-N-(vinyloxyäthyl)dithiocarbamat]
- LD50 [1]: 1400 ± 350 mg/kg
- inhibition of growth at 0.0015 % ([2]; Präparatkonzentration 0,0015 %): 30%
- inhibition of growth at 0.003 % ([2]; Präparatkonzentration 0,003 %): 55%
- inhibition of growth at 0.006 % ([2]; Präparatkonzentration 0,006 %): 90%
- inhibition of growth at 0.012 % ([2]; Präparatkonzentration 0,012 %): 100%
- inhibition of growth at 0.0015 % ([3]; Präparatkonzentration 0,0015 %): 100%
- inhibition of growth at 0.003 % ([3]; Präparatkonzentration 0,003 %): 100%
- inhibition of growth at 0.006 % ([3]; Präparatkonzentration 0,006 %): 100%
- inhibition of growth at 0.012 % ([3]; Präparatkonzentration 0,012 %): 100%
- inhibition of growth at 0.003 % ([4]; 120 h, Präparatkonzentration 0,003 %, read-out: Myzelhemmung in %): 100%
- inhibition of growth at 0.006 % ([4]; 120 h, Präparatkonzentration 0,006 %, read-out: Myzelhemmung in %): 100%
- inhibition of growth at 0.012 % ([4]; 120 h, Präparatkonzentration 0,012 %, read-out: Myzelhemmung in %): 100%
- Myzelhemmung in % ([4]; Präparatkonzentration 0,0015 %): 96%
- inhibition of growth at 0.0015 % ([5]; Präparatkonzentration 0,0015 %): 100%
- inhibition of growth at 0.012 % ([5]; Präparatkonzentration 0,012 %): 100%
- inhibition of growth at 0.003 % ([6]; Präparatkonzentration 0,003 %): 100%
- inhibition of growth at 0.006 % ([6]; Präparatkonzentration 0,006 %): 100%
- inhibition of growth at 0.012 % ([6]; Präparatkonzentration 0,012 %): 100%
- inhibition of growth at 0.012 % ([7]; Geotrichum candidum, 120 h, Präparatkonzentration 0,012 %, read-out: Myzelhemmung in %): 100%
- Myzelhemmung in % ([7]; Präparatkonzentration 0,0015 %): 30%
- Myzelhemmung in % ([7]; Präparatkonzentration 0,003 %): 100%
- Myzelhemmung in % ([7]; Präparatkonzentration 0,006 %): 100%
- inhibition of growth at 0.0015 % ([8]; Präparatkonzentration 0,0015 %): 100%
- inhibition of growth at 0.003 % ([8]; Präparatkonzentration 0,003 %): 100%
- inhibition of growth at 0.006 % ([8]; Präparatkonzentration 0,006 %): 100%
- inhibition of growth at 0.012 % ([8]; Präparatkonzentration 0,012 %): 100%
- inhibition of growth at 0.0015 % ([9]; Präparatkonzentration 0,0015 %): 100%
- inhibition of growth at 0.003 % ([9]; Präparatkonzentration 0,003 %): 100%
- inhibition of growth at 0.012 % ([9]; Präparatkonzentration 0,012 %): 100%
- inhibition of growth at 0.003 % ([10]; Penicillium chrysogenum, 120 h, Präparatkonzentration 0,003 %, read-out: Myzelhemmung in %): 26%
- inhibition of growth at 0.006 % ([10]; Penicillium chrysogenum, 120 h, Präparatkonzentration 0,006 %, read-out: Myzelhemmung in %): 93%
- inhibition of growth at 0.012 % ([10]; Penicillium chrysogenum, 120 h, Präparatkonzentration 0,012 %, read-out: Myzelhemmung in %): 100%
- Myzelhemmung in % ([10]; Präparatkonzentration 0,0015 %): 15%
- wachsendes Myzel um die Scheibe ([11]; Haltedauer 24 Stunden): -
- wachsendes Myzel um die Scheibe ([11]; Haltedauer 48 Stunden): -
- wachsendes Myzel um die Scheibe ([12]; Haltedauer 24 Stunden): -
- wachsendes Myzel um die Scheibe ([12]; Haltedauer 48 Stunden): -
- wachsendes Myzel um die Scheibe ([13]; Haltedauer 24 Stunden): -
- wachsendes Myzel um die Scheibe ([13]; Haltedauer 48 Stunden): -
- wachsendes Myzel um die Scheibe ([14]; Haltedauer 24 Stunden): -
- wachsendes Myzel um die Scheibe ([14]; Haltedauer 48 Stunden): -
- LK-50 % ([15]; 24-stündiger Kontakt mit dem Wirkstoff): 0,00208%
- Vernichtung von 100 % der Milben nach Stunden ([15]; Konzentration 0,0039 %): 48 Stunden
- Vernichtung von 100 % der Milben nach Stunden ([15]; Konzentration 0,0078 %): 24 Stunden
- Vernichtung von 100 % der Milben nach Stunden ([15]; Konzentration 0,0625 %): 6 Stunden
- Vernichtung von 100 % der Milben nach Stunden ([15]; Konzentration 0,125 bis 0,5 %): 4 Stunden
- selektive Toxizität gegen Räudemilben, dem Chlorophos überlegen ([15]; gegenüber Chlorophos): ~400 mal
- inhibition of growth at 0.006 % [16]: 100%
